Laboratory results: patent publication US7138361B2, “Herbicidal heterocycles” (E. I. du Pont de Nemours and Company, priority 2000, dated 2006)

Columns and labels:
Experiment in all cases: Test D greenhouse paddy-water test in rice
Assay type in all cases: in vivo
Conditions in all cases: 21 days, 0-100 scale
Cyperus iria (Ci) = tested on: Cyperus iria (Ci)
Text: (§1) Four plastic pots (ca. 16-cm diameter) per rate were partially filled with sterilized Tama silt loam soil comprised of a 35:50:15 ratio of sand, silt and clay and 2.6% organic matter. Separate plantings for each of the four pots were as follows. Seeds from the U.S. of Heteranthera limosa (Hl), Monochoria vaginalis (Mv), Ammania auriculata (Aa), and Sphenoclea zeylanica (Sz) were planted into one 16-cm pot for each rate. Seeds from the U.S. of Cyperus iria (Ci), Leptochloa fascicularis (Li), one stand of 9 or 10 direct-seeded rice seedlings (Oryza saliva cv. ‘Japonica—M202’; Oss), and one stand of 6 transplanted rice seedlings (Oryza sativa cv. ‘Japonica—M202’; Ost) were planted into one 16-cm pot for each rate. Seeds from the U.S. of Cyperus difformis (Cd), Alisma plantago-aquatica (Ap), and Scirpus mucronatus (Sm) were planted into one 16-cm pot for each rate. Seeds from the U.S. of Echinochloa crus-galli (Ecg), Echinochloa oryzicola (Eor), Echinochloa oryzoides (Eoz) and Echinochloa colonum (Ecc) were planted into one 16-cm pot for each rate. Plantings were sequential so that crop and weed species were at the 2.0 to 2.5-leaf stage at time of treatment.
(§2) Potted plants were grown in a greenhouse with day/night temperature settings of 29.5/26.7° C., and supplemental balanced lighting was provided to maintain a 16-hour photoperiod. Test pots were maintained in the greenhouse until test completion.
(§3) Chemical treatments consisting of Compound 1 of Index Table A (Cmpd 1), daimuron (Cmpd D), quinoclamine (Cmpd Q) and combinations thereof were formulated in acetone. At time of treatment, test pots were flooded to 3 cm above the soil surface, treated by application of test compounds directly to the paddy water, and then maintained at that water depth for the duration of the test. Effects of treatments on rice and weeds were visually evaluated by comparison to untreated controls after 21 days. Plant response ratings are reported on a 0 to 100 scale; where 0 is no effect and 100 is complete control. ND means no data.
(§4) Colby's equation was used to calculate the expected additive herbicidal effect of the mixtures of Compound 1 with daimuron (Cmpd D) and quinoclamine (Cmpd Q). Colby's equation (Colby, S. R “Calculating Synergistic and Antagonistic Responses of Herbicide Combinations,” Weeds, 15(1), pp 20–22 (1967)) calculates the expected additive effect of herbicidal mixtures, and for two active ingredients is of the form: Pa+b=Pa+Pb−(PaPb/100) wherein Pa+b is the percentage effect of the mixture expected from additive contribution of the individual components, • Pa is the observed percentage effect of the first active ingredient at the same use rate as in the mixture, and • Pb is the observed percentage effect of the second active ingredient at the same use rate as in the mixture.

[1] = tested on: Echinochloa colonum (Ecc)
Text: as §1, §2, §3, §4

[2] = tested on: Echinochloa oryzicola (Eor)
Text: as §1, §2, §3, §4

[3] = tested on: Echinochloa oryzoides (Eoz)
Text: as §1, §2, §3, §4

Heteranthera limosa (Hl) = tested on: Heteranthera limosa (Hl)
Text: as §1, §2, §3, §4

[4] = tested on: Sphenoclea zeylanica (Sz)
Text: as §1, §2, §3, §4

For `CC(C)(C)c1ccn(C2SCN(c3cccc(C(F)(F)F)c3)C2=O)n1` (centres unmarked) [Compound 1], the “Obs. (observed effect) Ci” value (Cyperus iria (Ci); 32 g/ha alone) was 95, the “Obs. (observed effect) Ci” value (Cyperus iria (Ci); 64 g/ha alone) was 100 and the “Obs. (observed effect) Ci” value (Cyperus iria (Ci); 125 g/ha alone) was 100. For the same compound, the “Obs. (observed effect) Ci” value (Cyperus iria (Ci); 250 g/ha alone) was 100, the “Obs. (observed effect) Ci” value (Cyperus iria (Ci); 500 g/ha alone) was 100 and the “Obs. (observed effect) Ecc” value ([1]; 32 g/ha alone) was 0. The “Obs. (observed effect) Ecc” value ([1]; 64 g/ha alone) was 100, the “Obs. (observed effect) Ecc” value ([1]; 125 g/ha alone) was 100 and the “Obs. (observed effect) Ecc” value ([1]; 250 g/ha alone) was 100. The “Obs. (observed effect) Ecc” value ([1]; 500 g/ha alone) was 100, the “Obs. (observed effect) Eor” value ([2]; 32 g/ha alone) was 0 and the “Obs. (observed effect) Eor” value ([2]; 64 g/ha alone) was 30. The “Obs. (observed effect) Eor” value ([2]; 125 g/ha alone) was 40, the “Obs. (observed effect) Eor” value ([2]; 250 g/ha alone) was 100 and the “Obs. (observed effect) Eor” value ([2]; 500 g/ha alone) was 100. For the same compound, the “Obs. (observed effect) Eoz” value ([3]; 32 g/ha alone) was 20, the “Obs. (observed effect) Eoz” value ([3]; 64 g/ha alone) was 100 and the “Obs. (observed effect) Eoz” value ([3]; 125 g/ha alone) was 100. The “Obs. (observed effect) Eoz” value ([3]; 250 g/ha alone) was 100, the “Obs. (observed effect) Eoz” value ([3]; 500 g/ha alone) was 100 and the “Obs. (observed effect) Hl” value (Heteranthera limosa (Hl); 64 g/ha alone) was 40. For the same compound, the “Obs. (observed effect) Hl” value (Heteranthera limosa (Hl); 125 g/ha alone) was 90, the “Obs. (observed effect) Hl” value (Heteranthera limosa (Hl); 250 g/ha alone) was 100 and the “Obs. (observed effect) Hl” value (Heteranthera limosa (Hl); 500 g/ha alone) was 100. For the same compound, the “Obs. (observed effect) Sz” value ([4]; 32 g/ha alone) was 100, the “Obs. (observed effect) Sz” value ([4]; 64 g/ha alone) was 100 and the “Obs. (observed effect) Sz” value ([4]; 125 g/ha alone) was 100. The “Obs. (observed effect) Sz” value ([4]; 250 g/ha alone) was 100 and the “Obs. (observed effect) Sz” value ([4]; 500 g/ha alone) was 100.
